What is called melting point is the temperature, or range, at which the solid turns liquid. Broadly, the IC50 is the point on the concentration scale where inhibition reaches its midpoint. Read a low IC50 as inhibition by little substance.

Series [1] deals with rhythmic bladder contraction in rats under urethane anesthesia. Nature of the series: Rhythmic contraction of the bladder in rats under urethane anesthesia. Particulars: urethane-anesthetized SD female rats, i.d.; for inhibition in vivo at 10 mg/kg: Rattus norvegicus, intraduodenal, up to 2 hours, read-out: Inhibition of frequency of the bladder contraction max % inhibition; for Frequency of Bladder Contraction Retention time of 50% Inhibition: 10 mg/kg. Type of series: in vivo, rat. An excerpt:
<Effect on the Rhythmic Contraction of the Bladder in Rats Under Urethane Anesthesia>
SD-Family female rats (about 300 g) were used. A catheter was inserted into the bladder through the external urethral orifice under urethane anesthesia and spontaneous breathing. The other end was connected to a pressure transducer and an infusion pump through a three-way cock. On the other hand, another catheter for measuring blood pressure was inserted into the right common carotid artery. Physiological saline warmed at about 38° C. was injected in the bladder at a rate of 4.2 ml/hr until rhythmical bladder contraction was induced. Change of the internal pressure in the bladder was continuously recorded on a recorder. After the rhythmical bladder contraction was stabilized, a test compound suspended in 0.5% methylcellulose aqueous solution was administered through a catheter which had been attached to the duodenum. Thus, frequency of the bladder contraction (every 10 minutes), force of bladder contraction and average blood pressure were observed as evaluation items up to 2 hours after administration of the test compound.

For series [2], the system named is rat's removed bladder specimen. Nature of the series: Inhibition of the contraction of rat's removed bladder specimen (15 mM K+-induced contraction, organ bath). The note with it: SD male rat bladder strips, dose giving 50% inhibition of contraction area. From the text: Since the inhibitory action is blocked by a known maxi-K channel blocker charybdotoxin or iberiotoxin, it is confirmed that the effect of the compounds of the invention is based on the maxi-K channel opening effect. Thus, the pharmacological effect of the compounds of the invention was confirmed according to the following method.
<Inhibitory Effect in Construction of the Rat's Removed Bladder Specimen>
In this experiment, SD-family male rats (9-13 weeks of age) were used. The rats were killed by bleeding under ether anesthesia, and the bladders were removed. The removed bladders were immediately washed in a Kiebs-Henseleit solution (NaCl 118.4, KCl 4.7, KH2PO4 1.2, MgSO4 1.2, CaCl2 2.5, NaHCO3 25.0, glucose 11.1 [mM], aeration with 95% O2/5% CO2 mixed gas) kept at 37° C., and prepared into rectangular specimens of about 10 mm long and about 2 mm width on a Petri dish filled with the Klebs-Henseleit solution. The respective specimens were ligated at the both ends with a cotton string via a wire hook, and the one end was fixed to an FD pick-up and the other hung down vertically in an organ bath filled with the Klebs-Henseleit solution. After completion of the operation, 1.0 g of static tensile stress was given to the respective slices, which were then allowed to stand for 1.5-2 hours to stabilize. Then, a KCl solution was added to the organ bath so that the final K^+ ion concentration become 15 mM to induce the contraction. Thereafter, the specimens were further allowed to stand for about 1-2 hours to stabilize, and the test was started. The contraction of the smooth muscle was measured isometrically through the FD pick-up, and the output signal was amplified through a strain stress amplifier to continuously record a chart on a pen recorder. At the same time, the respective contraction wave forms to be analyzed were recorded on a personal computer as magnetic data through an analogue/digital signal converter, and the under-area of the contraction was calculated by analytical software. The contraction 5 minutes immediately after the start of the test was regarded as the value before administration of the drug to be tested (100% reference value). The drug to be tested was added into the bath at intervals of 30 minutes, and the contraction for 5 minutes, respectively 25 minutes after the administration, was analyzed. The drug to be tested was administered at a common ratio of 3 or 10 accumulatively. The effect of the drug to be tested was represented by the dose by which 50% inhibition was attained to the value before the administration (100% reference value). Additionally, the wave form of contraction at the highest dose of the drug was recorded, and then a maxi-K channel selective blocker, charybdotoxin or iberiotoxin, was administered so that the final concentration in the organ bath became 100 nM. Thus, the effect of the drug was observed whether it was blocked or not.

The test system of series [3] is murine removed bladder smooth muscle. The note with it: cited from earlier work.
For series [4], the system named is rhythmic vesical contraction in an anesthetized rat. The note with it: cited from earlier work.

SMILES strings stand for the structures. Counter-ions that a name gives are not always drawn.

Consider `COc1nc(N)c(C#N)c(Cc2ccccc2)c1C#N` [Example 151, 2-amino-4-benzyl-6-methoxypyridine-3,5-dicarbonitrile], for which the melting point was 215 to 216 °C. Further, in series [1], the inhibition in vivo at 10 mg/kg was found to be 71% and the “Frequency of Bladder Contraction Retention time of 50% Inhibition” value (“Frequency … of 50% Inhibition” for short) was 26 min. In series [2], this molecule came in with an IC50 of 1000 nM.

Molecule `C#CCOc1nc(N)c(C#N)c(-c2ccccc2F)c1C#N` [Example 11, 2-amino-4-(2-fluorophenyl)-6-(prop-2-yn-1-yloxy)pyridine-3,5-dicarbonitrile] displayed a melting point of 205 to 206 °C. Also, in series [1], the inhibition in vivo at 10 mg/kg is 87% and the “Frequency … of 50% Inhibition” value was 27 min. Also, the IC50 in series [2] stood at 410 nM.

Regarding `N#Cc1c(N)nc(OCCOC(=O)[C@@H](N)Cc2ccccc2)c(C#N)c1-c1ccccc1` [Example 15, 2-[(2-amino-3,5-dicyano-4-phenylpyridin-6-yl)oxy]ethyl (S)-2-amino-3-phenylpropanoate monohydrochloride monohydrate], in series [1], the inhibition in vivo at 10 mg/kg came out at 89% and the “Frequency … of 50% Inhibition” value was determined as 36 min. The molecule further came in with a half-maximal inhibitory concentration (IC50) in series [2] of 2800 nM.

The molecule `COc1nc(N)c(C#N)c(C2CCCCO2)c1C#N` (centres unmarked) [Example 6, 2-amino-4-(2-tetrahydropyranyl)-6-methoxypyridine-3,5-dicarbonitrile] showed a melting point of 134 to 135 °C. In series [1], the inhibition in vivo at 10 mg/kg worked out at 65% and the “Frequency … of 50% Inhibition” value amounted to 39 min. The midpoint of inhibition in series [2], the IC50, lay at 1300 nM.

Take `COc1nc(N)c(C#N)c(-c2ccc(N)cc2)c1C#N.Cl.O` [Example 20, 2-amino-(4-aminophenyl)-6-methoxypyridine-3,5-dicarbonitrile monohydrochloride monohydrate]: in series [1], the inhibition in vivo at 10 mg/kg is 86% and the “Frequency … of 50% Inhibition” value is on record as 40 min. This molecule also came in with an IC50 in series [2] of 110 nM.

In series [2], `COc1nc(N)c(C#N)c(-c2cccs2)c1C#N` [Example 1, 2-amino-6-methoxy-4-(2-thienyl)pyridine-3,5-dicarbo-nitrile] registered an IC50 of 150 nM.

As for `COc1nc(NC(C)=O)c(C#N)c(-c2ccccc2F)c1C#N` [Example 58, N-[3,5-dicyano-4-(2-fluorophenyl)-6-methoxypyridin-2-yl]acetamide], the melting point lay in the range of 192 to 193 °C. In series [1], the inhibition in vivo at 10 mg/kg was found to be 93% and the “Frequency … of 50% Inhibition” value is on record as 46 min. In addition, in series [2], the IC50 was 1400 nM.

The molecule `N#Cc1c(N)nc(OCC(F)F)c(C#N)c1-c1ccccc1F` [Example 12, 2-amino-6-(2,2-difluoroethoxy)-4-(2-fluorophenyl)pyridine-3,5-dicarbonitrile] gave a melting point of 219 to 220 °C. Besides, in series [1], the inhibition in vivo at 10 mg/kg was 77% and the “Frequency … of 50% Inhibition” value is listed as 31 min. In series [2], this molecule came in with an IC50 of 410 nM.

As for `COc1nc(N)c(C#N)c(CC2CCCCC2)c1C#N` [Example 150, 2-amino-4-cyclohexylmethyl-6-methoxypyridine-3,5-dicarbonitrile], the melting point was 139 to 140 °C. Moreover, in series [1], the inhibition in vivo at 10 mg/kg was 81% and the “Frequency … of 50% Inhibition” value is 30 min. In series [2], this molecule had an IC50 of 1300 nM.

The molecule `COc1nc(N)c(C#N)c(-c2ccccc2F)c1C#N` [Example 3, 2-amino-6-methoxy-4-(2-fluorophenyl)pyridine-3,5-dicarbonitril] returned a melting point of 240 to 241 °C. In series [1], the inhibition in vivo at 10 mg/kg amounted to 97% and the “Frequency … of 50% Inhibition” value was found to be 39 min. Besides, 230 nM corresponded to half-maximal inhibition in series [2] (IC50).

With `Cc1c(-c2ccccc2F)[nH]c(N)c1C#N` [NS-8], the “Relaxant effect for the murine removed bladder smooth muscle” value in series [3] was “exhibits a relaxant effect”. The Rhythmic vesical contraction entry in series [4] was “makes rhythmic vesical contraction subsided”. Further, in series [2], the IC50 is 1100 nM.

These data come from US20030232860A1, “Medicine comprising dicyanopyridine derivative” (priority 2000, published 2003).
